Literature values as cited in patent US20240189256A1, “COMPOSITIONS FOR PRE-SURGICAL NUTRITIONAL SUPPLEMENTS” (TM Nutrition LLC, priority 2022, published 2024).

Tests used:
[1] = given orally
[2] = unless sepsis is present

N=C(N)NCCC[C@H](N)C(=O)O [arginine]
half-life [1]: 1.5 to 2 h | supplementation safe and well tolerated up to [2]: up to 10 g/day
